{"source": "ChEMBL document CHEMBL4699592", "about": "“Nature-Inspired (di)Azine-Bridged Bisindole Alkaloids with Potent Antibacterial In Vitro and In Vivo Efficacy against Methicillin-Resistant Staphylococcus aureus” (J Med Chem, 2020)", "key": {"[1]": {"test": "Selectivity index, ratio of IC50 for cytotoxicity against human THP-1 cells to MIC90 for antibacterial activity against […] Staphylococcus aureus ATCC 700699", "type": "toxicity, cell-based", "conditions": "read-out: Selectivity Index"}, "[2]": {"tested_on": "MRC5", "test": "Cytotoxicity against human MRC5 cells assessed as reduction in cell viability at >=12.5 uM measured after 48 hrs by resazurin dye based fluorescence assay", "conditions": "mrc5, 48 h"}, "[3]": {"tested_on": "THP-1", "test": "Cytotoxicity against human THP-1 cells assessed as reduction in cell viability at >=12.5 uM measured after 48 hrs by resazurin dye based fluorescence assay", "conditions": "thp-1, 48 h"}, "[4]": {"tested_on": "Acinetobacter baumannii", "test": "Antibacterial activity against Acinetobacter baumannii ATCC BAA-1605 at 0.78 to 100 uM after 24 hrs by broth microdilution method", "type": "functional, organism-based", "conditions": "dose microM 0.78-100, time 24.0 hrs"}, "[5]": {"tested_on": "Mycobacterium tuberculosis", "test": "Antibacterial activity against Mycobacterium tuberculosis H37Rv at 0.78 to 100 uM after 5 days by resazurin dye based fluorescence assay", "type": "functional, organism-based", "conditions": "dose microM 0.78-100, time 5.0 day"}, "[6]": {"tested_on": "Staphylococcus aureus", "test": "Antibacterial activity against […] Staphylococcus aureus ATCC 700699 after 24 hrs by broth microdilution method", "type": "functional"}, "[7]": {"test": "Solubility of compound in pH 7.7 PBS buffer", "type": "physicochemical"}, "[8]": {"test": "Selectivity index, ratio of IC50 for cytotoxicity against human MRC5 cells to MIC90 for antibacterial activity against […] Staphylococcus aureus ATCC 700699", "type": "toxicity, cell-based", "conditions": "read-out: Selectivity Index"}, "[9]": {"tested_on": "Staphylococcus aureus", "test": "Bactericidal activity against […] Staphylococcus aureus ATCC 700699 assessed as reduction in bacterial viability at 5 fold MIC incubated for 6 hrs by time kill assay relative to control", "type": "functional"}, "[10]": {"tested_on": "Staphylococcus aureus", "test": "Bactericidal activity against […] Staphylococcus aureus ATCC 700699 assessed as colony forming units at 5 fold MIC measured after 24 hrs by time kill assay", "type": "functional"}, "[11]": {"tested_on": "Staphylococcus aureus", "test": "Bactericidal activity against […] Staphylococcus aureus ATCC 700699 assessed as colony forming unit at 5 fold MIC incubated for 6 hrs followed by compound washout and subsequent compound addition by time kill assay", "type": "functional"}, "[12]": {"test": "Stability of compound in pH 7.7 DMSO:PBS solution at 0.19 uM measured after 6 hrs", "type": "physicochemical", "conditions": "buffer, pH 7.7, 6 h"}, "[13]": {"tested_on": "Staphylococcus aureus", "test": "Antibacterial activity against methicillin susceptible Staphylococcus aureus ATCC 25923 after 24 hrs by broth microdilution method", "type": "functional"}, "[14]": {"tested_on": "Enterococcus faecium", "test": "Antibacterial activity against vancomycin-resistant Enterococcus faecium ATCC 35667 at 0.78 to 100 uM after 24 hrs by broth microdilution method", "type": "functional, organism-based", "conditions": "dose microM 0.78-100, time 24.0 hrs"}, "[15]": {"tested_on": "Enterococcus faecium", "test": "Antibacterial activity against vancomycin-resistant Enterococcus faecium ATCC 700221 at 0.78 to 100 uM after 24 hrs by broth microdilution method", "type": "functional, organism-based", "conditions": "dose microM 0.78-100, time 24.0 hrs"}, "[16]": {"tested_on": "Enterococcus faecalis", "test": "Antibacterial activity against Enterococcus faecalis ATCC 51299 at 0.78 to 100 uM after 24 hrs by broth microdilution method", "type": "functional, organism-based", "conditions": "dose microM 0.78-100, time 24.0 hrs"}, "[17]": {"tested_on": "Enterococcus faecalis", "test": "Antibacterial activity against Enterococcus faecalis ATCC 29212 at 0.78 to 100 uM after 24 hrs by broth microdilution method", "type": "functional, organism-based", "conditions": "dose microM 0.78-100, time 24.0 hrs"}, "[18]": {"tested_on": "Staphylococcus aureus", "test": "Antibacterial activity against methicillin susceptible Staphylococcus aureus ATCC 25923 at 0.78 to 100 uM after 24 hrs by broth microdilution method", "type": "functional, organism-based", "conditions": "dose microM 0.78-100, time 24.0 hrs"}, "[19]": {"tested_on": "Staphylococcus aureus", "test": "Antibacterial activity against vancomycin-sensitive Staphylococcus aureus T144 infected in Balb/c mouse assessed as reduction in bacterial burden at 20 mg/kg applied topically measured after 12 days by colony counting method", "type": "functional, organism-based", "conditions": "time 12.0 day"}, "[20]": {"tested_on": "Staphylococcus aureus", "test": "Antibacterial activity against vancomycin-sensitive Staphylococcus aureus T144 infected in Balb/c mouse assessed as increase in wound healing at 20 mg/kg applied topically measured daily for 12 days by microscopic analysis", "type": "functional, organism-based", "conditions": "time 12.0 day"}, "[21]": {"tested_on": "Staphylococcus aureus", "test": "Antibacterial activity against vancomycin-sensitive Staphylococcus aureus T144 infected in Balb/c mouse peritonitis-sepsis model assessed as increase in survival at 20 mg/kg, ip measured for 48 hrs", "type": "functional, organism-based"}, "[22]": {"tested_on": "Staphylococcus aureus", "test": "Antibacterial activity against methicillin-resistant Staphylococcus aureus USA300 LAC at 0.15 to 25 uM incubated for 24 hrs under low glucose medium by resazurin dye based fluorescence assay", "type": "functional, organism-based", "conditions": "dose microM 0.15-25, time 24.0 hrs"}, "[23]": {"tested_on": "Staphylococcus aureus", "test": "Antibacterial activity against methicillin-resistant Staphylococcus aureus USA300 LAC at 0.15 to 25 uM incubated for 24 hrs under low pyruvate containing medium by resazurin dye based fluorescence assay", "type": "functional, organism-based", "conditions": "dose microM 0.15-25, time 24.0 hrs"}, "[24]": {"tested_on": "Staphylococcus aureus", "test": "Antibacterial activity against methicillin-resistant pyruvate kinase deficient Staphylococcus aureus USA300 LAC at 0.15 to 25 uM incubated for 24 hrs under low pyruvate containing medium by resazurin dye based fluorescence assay", "type": "functional, organism-based", "conditions": "dose microM 0.15-25, time 24.0 hrs"}, "[25]": {"tested_on": "Cell membrane", "test": "Induction of cell membrane permeabilization in methicillin resistant Staphylococcus aureus ATCC 700699 measured at 5 mins interval for 2 hrs by propidium iodide staining based fluorescence assay", "type": "subcellular"}, "[26]": {"tested_on": "Cell membrane", "test": "Induction of cell membrane permeabilization in GFP-expressing Staphylococcus aureus ATCC 700699 assessed as increase in cellular ATP leakage at 5 fold MIC measured after 0.5 hrs by Bactiter-glo assay", "type": "subcellular"}}, "note": "Calls of active or inactive are those of the source. No cut-off for these calls is given here.", "data": [{"smiles": "Clc1ccc2[nH]cc(-c3cnc(-c4c[nH]c5ccc(Cl)cc45)cn3)c2c1", "values": [{"measurement": "selectivity ratio", "setting": "[1]", "value": 32}, {"measurement": "Activity", "setting": "[2]", "value": "Toxic"}, {"measurement": "Activity", "setting": "[3]", "value": "Toxic"}, {"measurement": "Activity", "setting": "[4]", "value": "inactive"}, {"measurement": "Activity", "setting": "[5]", "value": "inactive"}, {"measurement": "MIC90", "setting": "[6]", "value": 0.39, "unit": "µM"}, {"measurement": "solubility", "setting": "[7]", "value": "Insoluble"}, {"measurement": "selectivity ratio", "setting": "[8]", "value": 32}, {"measurement": "fold change (FC)", "setting": "[9]", "value": 100}, {"measurement": "Activity", "setting": "[10]", "value": 100, "unit": "CFU/ml"}, {"measurement": "Activity", "setting": "[11]", "value": 100, "unit": "CFU/ml"}, {"measurement": "Stabilty", "setting": "[12]", "value": "Stable"}]}, {"smiles": "Fc1ccc2[nH]cc(-c3cnc(-c4c[nH]c5ccc(F)cc45)cn3)c2c1", "values": [{"measurement": "Activity", "setting": "[4]", "value": "inactive"}, {"measurement": "Activity", "setting": "[5]", "value": "inactive"}, {"measurement": "MIC90", "setting": "[6]", "value": "> 100", "unit": "µM"}]}, {"smiles": "c1ccc2c(-c3cnc(-c4c[nH]c5ccccc45)nc3)c[nH]c2c1", "values": [{"measurement": "Activity", "setting": "[4]", "value": "inactive"}, {"measurement": "Activity", "setting": "[5]", "value": "inactive"}, {"measurement": "MIC90", "setting": "[6]", "value": 12.5, "unit": "µM"}]}, {"smiles": "Brc1cc2[nH]cc(-c3cnc(-c4c[nH]c5cc(Br)c(Br)cc45)cn3)c2cc1Br", "values": [{"measurement": "Activity", "setting": "[4]", "value": "inactive"}, {"measurement": "Activity", "setting": "[5]", "value": "inactive"}, {"measurement": "MIC90", "setting": "[6]", "value": 1.56, "unit": "µM"}, {"measurement": "MIC", "setting": "[13]", "value": 1.56, "unit": "µM"}]}, {"smiles": "Oc1ccc2[nH]cc(-c3cnc(-c4c[nH]c5ccc(O)cc45)cn3)c2c1", "values": [{"measurement": "Activity", "setting": "[14]", "value": "inactive"}, {"measurement": "Activity", "setting": "[15]", "value": "inactive"}, {"measurement": "Activity", "setting": "[16]", "value": "inactive"}, {"measurement": "Activity", "setting": "[17]", "value": "inactive"}, {"measurement": "Activity", "setting": "[4]", "value": "inactive"}, {"measurement": "Activity", "setting": "[5]", "value": "inactive"}, {"measurement": "Activity", "setting": "[18]", "value": "inactive"}, {"measurement": "MIC90", "setting": "[6]", "value": "> 100", "unit": "µM"}]}, {"smiles": "Brc1ccc2c(-c3cnc(-c4c[nH]c5cc(Br)ccc45)cn3)c[nH]c2c1", "values": [{"measurement": "Activity", "setting": "[4]", "value": "inactive"}, {"measurement": "Activity", "setting": "[5]", "value": "inactive"}, {"measurement": "MIC90", "setting": "[6]", "value": "> 100", "unit": "µM"}]}, {"smiles": "COc1ccc2[nH]cc(-c3cccc(-c4c[nH]c5ccc(OC)cc45)n3)c2c1", "values": [{"measurement": "Activity", "setting": "[4]", "value": "inactive"}, {"measurement": "Activity", "setting": "[5]", "value": "inactive"}, {"measurement": "MIC90", "setting": "[6]", "value": 12.5, "unit": "µM"}]}, {"smiles": "CN[C@H](CC(C)C)C(=O)N[C@H]1C(=O)N[C@@H](CC(N)=O)C(=O)N[C@H]2C(=O)N[C@H]3C(=O)N[C@H](C(=O)N[C@H](C(=O)O)c4cc(O)cc(O)c4-c4cc3ccc4O)[C@H](O)c3ccc(c(Cl)c3)Oc3cc2cc(c3O[C@@H]2O[C@H](CO)[C@@H](O)[C@H](O)[C@H]2O[C@H]2C[C@](C)(N)[C@H](O)[C@H](C)O2)Oc2ccc(cc2Cl)[C@H]1O", "values": [{"measurement": "Activity", "setting": "[19]", "value": "Active"}, {"measurement": "Activity", "setting": "[20]", "value": "Active"}, {"measurement": "Activity", "setting": "[21]", "value": "Active"}]}, {"smiles": "Brc1ccc2[nH]cc(-c3cnc(-c4c[nH]c5ccc(Br)cc45)cn3)c2c1", "values": [{"measurement": "selectivity ratio", "setting": "[1]", "value": 8}, {"measurement": "Activity", "setting": "[2]", "value": "Toxic"}, {"measurement": "Activity", "setting": "[3]", "value": "Toxic"}, {"measurement": "Activity", "setting": "[4]", "value": "inactive"}, {"measurement": "Activity", "setting": "[5]", "value": "inactive"}, {"measurement": "MIC90", "setting": "[6]", "value": 1.56, "unit": "µM"}, {"measurement": "solubility", "setting": "[7]", "value": "Insoluble"}, {"measurement": "selectivity ratio", "setting": "[8]", "value": 8}, {"measurement": "fold change (FC)", "setting": "[9]", "value": 10000}, {"measurement": "Activity", "setting": "[22]", "value": "Active"}, {"measurement": "Activity", "setting": "[23]", "value": "Active"}, {"measurement": "Activity", "setting": "[24]", "value": "Active"}]}, {"smiles": "COc1ccc2[nH]cc(-c3cnc(-c4c[nH]c5ccc(OC)cc45)cn3)c2c1", "values": [{"measurement": "Activity", "setting": "[14]", "value": "inactive"}, {"measurement": "Activity", "setting": "[15]", "value": "inactive"}, {"measurement": "Activity", "setting": "[16]", "value": "inactive"}, {"measurement": "Activity", "setting": "[17]", "value": "inactive"}, {"measurement": "Activity", "setting": "[4]", "value": "inactive"}, {"measurement": "Activity", "setting": "[5]", "value": "inactive"}, {"measurement": "Activity", "setting": "[18]", "value": "inactive"}, {"measurement": "MIC90", "setting": "[6]", "value": "> 100", "unit": "µM"}]}, {"smiles": "c1cc(-c2c[nH]c3ncccc23)nc(-c2c[nH]c3ncccc23)c1", "values": [{"measurement": "Activity", "setting": "[4]", "value": "inactive"}, {"measurement": "Activity", "setting": "[5]", "value": "inactive"}, {"measurement": "MIC90", "setting": "[6]", "value": "> 100", "unit": "µM"}]}, {"smiles": "CC(=O)NC[C@H]1CN(c2ccc(N3CCOCC3)c(F)c2)C(=O)O1", "values": [{"measurement": "Activity", "setting": "[25]", "value": "inactive"}, {"measurement": "Activity", "setting": "[26]", "value": "inactive"}]}]}
